Where two headings read alike, the source gives them in different places.
How the values were obtained:
FOXO1 [1] = test: Nuclear cytoplasmic fractionation of H1650; type: cell-based, human; details: 20 μM, 1 h
Procedure: H1650 cells were seeded and grown to 60-70% confluency, and treated with increasing doses of TFP. Cell lysates were extracted using NE-PER Nuclear and Cytoplasmic Extraction Reagents (Thermo Scientific) according to supplier's protocol.
Trifluoperazine Hydrochloride (TFP), a FDA-approved antipsychotic and antiemetic, is an effective nuclear export inhibitor of the FOXO1 transcription factor that increases FOXO1 nuclear localization via calmodulin inhibition upstream of AKT and downstream of PI3K. Kau, T. R., et al. Cancer Cell 4, 463-476 (2003). TFP was used to inhibit nuclear export of FOXO1 and determine if activation of the FOXO1/KLF6 transcriptional network could restore sensitivity to the PTEN-depleted, erlotinib-resistant cell line, H1650. To examine the effect of TFP on nuclear localization of FOXO1 and, subsequently, KLF6 expression, H1650 cells were treated for 1 h with increasing doses of TFP (0, 20 μM, 40 μM) and fractionated into nuclear and cytoplasmic fractions. BRCA1 served as a nuclear marker and GAPDH served as a cytoplasmic marker for the fractionation.

[2] = cited from earlier work
H1650 xenograft tumors = test: Tumorgenicity assay, H1650 xenograft; type: in vivo, nude mice; details: i.p., erlotinib 25 mg/kg, TFP 10 mg/kg, four treatments
Procedure: H1650 cells (5×10^6) were similarly injected into the right flank of 6 to 8-week old female BALB/c nu/nu mice. Tumor volume was assessed weekly as previously described by Sangodkar, J., et al., supra until volumes reached an average of 200 mm^3. […] A total of four treatments were given with a 48 h rest period.
Tumor growth was measured weekly until average tumor volume for all mice was approximately 200 mm^3. […] Tumor growth in H1650-injected nude mice was measured 24 hours after each drug injection. […] Lysate homogenates from treated and untreated tumors were run and probed in parallel (n=5); statistical significance of densitometry calculations indicated (*P<0.05; **P<0.01; ***P<0.001).

H1650 cell line = test: Apoptosis (FACS sub-G1, cleaved PARP and Caspase 3) in H1650; type: cell-based, human
Procedure: (§1) Cells treated with drug or transfected with siRNA were stained with propidium iodide to ascertain DNA content and determine cell cycle distribution within the cell population as previously described. […] Sub-G1 peaks were analyzed on DNA histograms; hypo diploid DNA represented dead cells. This fraction indicated apoptotic as well as necrotic cells. Apoptosis was further validated by Caspase 3 and PARP cleavage through western blotting.
(§2) The role of KLF6 in induction of apoptosis in response to anti-EGFR therapeutics was further tested in cell culture.

KLF6 [3] = test: KLF6 mRNA and protein expression in H1650; type: cell-based, human; details: 40 μM TFP, 1 h and 48 h
Procedure: (§3) RNA was isolated from cell lines and tumor samples using the RNeasy Mini Kit (Qiagen) as per manufacturer's instructions. For each PCR reaction, 1 μg RNA was reverse transcribed using iScript cDNA synthesis kit (BioRad Laboratories). Each cDNA sample was subjected to sequence-specific partial amplification with specific primers and the SYBR green PCR Master Mix (Applied Biosystems) on an ABI PRISM 7900HT plate-reader instrument. […] The following primers were also used: FOXO1 forward 5′ […]
as §2

A549luc = test: Cell viability, A549luc; type: cell-based; details: Homo sapiens
H1650 = test: Cell viability, H1650; type: cell-based; details: Homo sapiens, NCI-H1650
FOXO1 [4] = test: FOXO1 immunocytochemistry in H1650 cells; details: 20 μM, 48 hours, vs untreated
Procedure: Viability of cells line H1650, A549luc and H3255 were determined for cells grown in control medium and medium supplemented with 10 μM, 20 μM and 40 μM chlorpromazine.
H1650 cells were plated on glass coverslips at a density of 150,000 cells in complete RPMI media. […] After incubation with a secondary goat anti-Rabbit IgG (1:1000), (H+L) FITC conjugate (Millipore, P307F), cover slips were mounted with Vectashield DAPI counterstain (H1200) and visualized under fluorescent microscope. A total of 100 cells per condition were counted to determine the distribution of FOXO1 in the cytoplasm vs. the nucleus.

H3255 = test: Cell viability, H3255; type: cell-based; details: Homo sapiens, NCI-H3255
ERK and AKT [5] = system: ERK and AKT
From the text: (§5) The variable sensitivity of the lung adenocarcinoma cell lines to anti-EGFR-based therapy was used to determine the effects of EGFR inhibition on KLF6 gene transcription.

KLF6 [6] = test: KLF6 mRNA and protein expression in A549; type: cell-based, human; details: 1 μM 72 h
Procedure: as §3

[7] = system: P-EGFR, P-AKT, P-FOXO1, T-FOXO1; test: Western blot of EGFR-AKT-FOXO1 signaling in HCC827; type: cell-based, human
Procedure: EGFR activates two major downstream pathways, the Ras-Raf-MAPK and the PI3K-AKT signaling cascades, resulting in both increased cellular proliferation and survival. […] The role of PI3K-AKT signaling cascade was tested utilizing an antagonist of AKT signaling that acts by inhibiting of the PDK1 and 2 kinases that activate AKT.

[8] = system: EGFR^L858R mutant mouse-derived tumors; details: in vivo
KLF6 [9] = test: KLF6 mRNA and protein expression in H2122; type: cell-based, human; details: 1 μM 72 h
Procedure: as §3

shLuc-HCC827 = test: Clonogenic assay, shLuc-HCC827; type: cell-based, human; details: control shLuc; 50 nM; 7 days
Procedure: HCC827 shLuc and shKLF6 were plated at a low density in 6-well plates. […] Cells were fixed and then stained with 1% crystal violet staining solution.

A549 cell line = test: Apoptosis (FACS sub-G1 fraction, cleaved PARP) in A549; type: cell-based, human
Procedure: as §1
(§4) In addition, dysregulated activity of downstream mediators of EGFR signaling, such as PTEN, PI3K and K-Ras or amplification of the MET proto-oncogene can also drive the resistant phenotype.

H2122 cell line = test: Apoptosis (FACS sub-G1 fraction, cleaved PARP) in H2122; type: cell-based, human
Procedure: as §1, §4

HCC827 cell line = system: HCC827 cell line
Procedure: as §1, §4

H1975 cell line = test: Apoptosis (FACS sub-G1 fraction, cleaved PARP) in H1975; type: cell-based; details: Homo sapiens, NCI-H1975; H1975 (T790M EGFR); 72 h; read-out: IC50, erlotinib-mediated apoptosis
Procedure: as §1, §4

KLF6 [10] = test: KLF6 mRNA and protein expression (qRT-PCR, western) in HCC827; type: cell-based, human
Procedure: as §3

FOXO1 and KLF6 = type: cell-based, human
ERK and AKT [11] = system: ERK and AKT; remark: listed apart in the source
From the text: as §5

In the case of `CN1CCN(CCCN2c3ccccc3Sc3ccc(C(F)(F)F)cc32)CC1` [TFP, 10-[3-(4-methylpiperazin-1-yl)propyl]-2-(trifluoromethyl)-10H-phenothiazine], the “Nuclear FOXO1 expression” value (FOXO1 [1]) is listed as “increased nuclear FOXO1 expression”, the “average daily clinical dose for CNS effect” value (“average daily clinical dose” for short) [2] is listed as 0.3 µmol/kg and the Tumor growth rate (H1650 xenograft tumors) is listed as “decreased”. For the same compound, the “Apoptosis (FACS, cleaved PARP, cleaved Caspase 3)” value (H1650 cell line; 40 μM TFP, 1 h) was “increased apoptosis” and the “KLF6 mRNA and protein” value (KLF6 [3]) was “upregulation of KLF6 mRNA and protein”.
In the case of `CN(C)CCCN1c2ccccc2Sc2ccc(Cl)cc21` [chlorpromazine, 3-(2-chloro-10H-phenothiazin-10-yl)-N,N-dimethyl-propan-1-amine], the “average daily clinical dose” value [2] is given as 12 µmol/kg, the IC50 (A549luc) is given as 20 µM and the IC50 (H1650) is given as 20 µM. For the same compound, the “Apoptosis (sub-G1 propidium iodide staining)” value (H1650 cell line; increasing doses of CPZ, 48 hrs) was “increased amount of apoptosis”, the “Nuclear accumulation of FOXO1” value (FOXO1 [4]) was “significant nuclear accumulation of FOXO1” and the IC50 (H3255) was 8 µM.
With `C#Cc1cccc(Nc2ncnc3cc(OCCOC)c(OCCOC)cc23)c1` [erlotinib, [6,7-bis(2-methoxyethoxy)-4-quinazolin-4-yl]-(3-ethynylphenyl) amine] the “Downstream ERK signaling” value (ERK and AKT [5]) was “no changes in downstream ERK signaling”, the “KLF6 expression, mRNA and protein” value (KLF6 [6]) was “still upregulated” and the “Phosphorylated EGFR, AKT and FOXO1” value [7] was “reduced phosphorylated forms of EGFR, AKT and FOXO1”. The “Total FOXO1” value [7] was “increased total amount of FOXO1”, the Tumor growth rate (H1650 xenograft tumors) was “increased” and the “KLF6 expression in tumors” value [8] was “increased KLF6 expression at both the mRNA and protein level”. For the same compound, the “Spontaneous apoptosis, Caspase 3 cleavage in tumors” value [8] was “increased Caspase 3 cleavage”, the “KLF6 expression, mRNA and protein” value (KLF6 [9]) was “still upregulated” and the Colony formation (shLuc-HCC827) was “decreased colony formation”. For the same compound, the Induction of apoptosis (A549 cell line; A549) was “did not result in a significant induction of apoptosis”, the IC50 (A549 cell line; Homo sapiens, A549, 72 h, read-out: IC50, erlotinib-mediated apoptosis) was > 0.5 µM and the Induction of apoptosis (H2122 cell line; H2122) was “did not result in a significant induction of apoptosis”. For the same compound, the IC50 (H2122 cell line; Homo sapiens, NCI-H2122, 72 h, read-out: IC50, erlotinib-mediated apoptosis) was > 0.5 µM, the “Apoptosis (sub-G1 propidium iodide staining, cleaved PARP)” value (HCC827 cell line) was “significantly increased levels of apoptosis” and the “Cleaved PARP” value (HCC827 cell line) was “increased cleaved PARP”. The IC50 (H1975 cell line) was > 0.5 µM, the “Apoptosis (sub-G1 propidium iodide staining, cleaved PARP)” value (H1650 cell line; 1 μM erlotinib, 48 h) was “no increase in apoptosis” and the KLF6 expression (KLF6 [10]) was “significant upregulated”. For the same compound, the “KLF6 gene expression, endogenous mRNA and protein” value (KLF6 [10]) was “Significant upregulation”, the “Nuclear localization of FOXO1 and KLF6” value (FOXO1 and KLF6) was “increased” and the “Downstream ERK signaling” value (ERK and AKT [11]) was “no changes in downstream ERK signaling”.
In the case of `OCCN1CCN(CC/C=C2/c3ccccc3Sc3ccc(C(F)(F)F)cc32)CC1` [flupentixol], the “average daily clinical dose” value [2] is listed as 0.01 µmol/kg.
For `OCCN1CCN(CCCN2c3ccccc3Sc3ccc(C(F)(F)F)cc32)CC1` [fluphenazine], the “average daily clinical dose” value [2] is given as 0.17 µmol/kg.
For `OCCN1CCN(CCCN2c3ccccc3Sc3ccc(Cl)cc32)CC1` [perphenazine], the “average daily clinical dose” value [2] is given as ~1 µmol/kg.
For `CN(C)CCCN1c2ccccc2Sc2ccccc21` [promazine], the average daily clinical dose for CNS effect [2] is listed as 33 µmol/kg.
For `CSc1ccc2c(c1)N(CCC1CCCCN1C)c1ccccc1S2` (stereo not drawn) [thiordazine], the “average daily clinical dose” value [2] is given as 13 µmol/kg.
In the case of `CN(C)CCCN1c2ccccc2Sc2ccc(C(F)(F)F)cc21` [triflupromazine], the “average daily clinical dose” value [2] is given as 6 µmol/kg.
In the case of `OCCN1CCN(CC/C=C2/c3ccccc3Sc3ccc(Cl)cc32)CC1` [zuclopenthixol], the “average daily clinical dose” value [2] is listed as ~0.05 µmol/kg.
